We go through 22 compounds from patent publication US20020128231A1 (priority 2000, published 2002).

The term inhibition denotes the change of the read-out against control, counted positive when it falls. The low end stands for little suppression, the high end for strong suppression.

Data set [1] concerns the target P-glycoprotein (Homo sapiens, UniProt P08183). Briefly: Rhodamine 123 transport assay across HCT-8 cell monolayers. As to conditions: compound 10 μM, Rh123 15 μM, HCT-8 cells; for inhibition at 10 μM: human, HCT-8 cell monolayers in Transwell dishes, probe Rhodamine 123 (15 μM), % Inhibition of R123 Transport.
Method: The human ileocecal adenocarcinoma cell line HCT-8 was grown in RPMI-1640 medium supplemented with 10% horse serum, 1 mM sodium pyruvate and 0.01 mg/ml gentamicin. All cells were maintained in a humidified atmosphere with 5% CO2 at 37° C.
Rhodamine 123 transport was examined as previously described (Hunter J. et al., Simmons, Br. J. Cancer, 64: 437444 (1991); Kim A. E. et al., J. Pharm. Exp. Ther., 286: 1439-1445 (1998)) using HCT-8 cells. Particularly, cells were grown in 6 well Corning Transwell dishes until a tight monolayer was formed. Rh123 was added at a final concentration of 15 μM to the basal or apical compartments and 200 μl samples were taken at the indicated times from the opposite chamber. Fluorescence of Rh123 in the media samples was measured using a fluorescence plate reader with an excitation wavelength of 485 nm and an emission wavelength of 530 nm.
The test system of data set [2] is MDR1-expressing NIH 3T3 cells. The data set can be described thus: Cytotoxicity (MTT) assay: modulation of drug cytotoxicity in multidrug resistant cells. The note with it: for Modulation of Drug Resistance (percentage increase in doxorubicin cytotoxicity in the presence of the compounds versus in their absence): compound 5 μM, 50 nM doxorubicin, 72 hours, MTT.
Method: Cytotoxicity assays were performed with many of the compounds of Formula I to verify their usefulness as inhibitors of P-gp.
Parental NIH3T3 Swiss mouse embryo cell line was obtained from American Type Culture Collection and was grown in Dulbecco's Modified Eagles Medium supplemented with 4.5 g/L glucose, 10% fetal bovine serum, 2 mM L-glutamine, and 0.01 mg/ml gentamicin. […] All cells were maintained in a humidified atmosphere with 5% CO2 at 37° C.
Parental and MDR1-expressing NIH 3T3 cells were plated at a density of 2.5-3.0×10^3 cells/well in 96-well microtiter plates and were exposed to 50 nM of doxoriubicin, 7.5 nM vinblastine, 75 nM colchicine or 300 nM paclitaxel for 72 hours. Cell viability was determined with the colorimetric MTT (3-(4,5-dimethylthiazol-2-yl)-2,5-diphenyl tetrazolium) assay as previously described (Mosmann T., J. Immunol. Methods, 65: 55-63 (1983); Hansen M. B. et al., J. Immunol. Methods, 119: 203-210 (1989)) and the absorbance was measured at 570 nm.

SMILES strings stand for the structures.

Sequence of P-glycoprotein (P08183 whole entry): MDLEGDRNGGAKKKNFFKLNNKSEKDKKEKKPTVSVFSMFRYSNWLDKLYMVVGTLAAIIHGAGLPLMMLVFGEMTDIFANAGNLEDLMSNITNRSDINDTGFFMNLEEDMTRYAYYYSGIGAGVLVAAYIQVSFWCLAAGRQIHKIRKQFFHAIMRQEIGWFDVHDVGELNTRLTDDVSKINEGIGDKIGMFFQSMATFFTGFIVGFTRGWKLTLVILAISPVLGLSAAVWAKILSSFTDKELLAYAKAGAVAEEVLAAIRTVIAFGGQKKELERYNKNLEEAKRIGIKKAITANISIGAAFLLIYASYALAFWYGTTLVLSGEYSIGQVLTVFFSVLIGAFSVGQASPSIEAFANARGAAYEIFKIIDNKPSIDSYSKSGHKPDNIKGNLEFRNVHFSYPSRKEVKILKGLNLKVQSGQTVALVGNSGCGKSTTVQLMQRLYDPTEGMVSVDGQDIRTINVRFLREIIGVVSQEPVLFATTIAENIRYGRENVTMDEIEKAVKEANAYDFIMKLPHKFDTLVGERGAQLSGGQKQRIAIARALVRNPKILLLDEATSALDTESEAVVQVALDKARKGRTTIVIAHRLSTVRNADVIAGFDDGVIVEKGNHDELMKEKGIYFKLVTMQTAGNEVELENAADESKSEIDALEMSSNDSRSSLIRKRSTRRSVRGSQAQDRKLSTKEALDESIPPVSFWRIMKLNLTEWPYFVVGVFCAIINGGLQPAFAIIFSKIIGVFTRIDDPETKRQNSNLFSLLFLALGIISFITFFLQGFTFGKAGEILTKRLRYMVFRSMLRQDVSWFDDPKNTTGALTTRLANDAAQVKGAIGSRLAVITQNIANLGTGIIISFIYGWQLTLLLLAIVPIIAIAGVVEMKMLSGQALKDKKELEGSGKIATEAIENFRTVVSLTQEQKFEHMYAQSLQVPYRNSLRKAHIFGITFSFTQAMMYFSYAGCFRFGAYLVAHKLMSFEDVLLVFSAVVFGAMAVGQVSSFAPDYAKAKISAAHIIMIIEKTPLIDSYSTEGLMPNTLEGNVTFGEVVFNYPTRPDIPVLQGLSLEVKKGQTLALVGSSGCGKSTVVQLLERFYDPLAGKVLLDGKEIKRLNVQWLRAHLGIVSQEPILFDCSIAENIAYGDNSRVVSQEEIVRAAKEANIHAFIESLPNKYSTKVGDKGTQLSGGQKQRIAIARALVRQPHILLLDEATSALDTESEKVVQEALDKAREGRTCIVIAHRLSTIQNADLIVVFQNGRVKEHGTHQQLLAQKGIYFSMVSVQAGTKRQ

As for `COCC1C(CCN2CCN(c3ccccc3OC)CC2)c2cc(OC)c(OC)cc2C1c1ccc(OC)c(OC)c1` (stereo not shown) [AV-202, 1{-2-[3-(3,4-dimethoxyphenyl)-5,6-dimethoxy-2-methoxymethyl-indan-1-yl]-ethyl}-4-(2-methoxyphenyl)-piperazine], in data set [1], the inhibition at 10 μM was 88.4%. Further, the “Modulation of Drug Resistance (percentage increase in doxorubicin cytotoxicity in the presence of the compounds versus in their absence)” value in data set [2] was determined as 59.68%. In data set [2] (doxorubicin 0-750 nM, compound 50-1000 nM), the “dose responsive sensitization of multidrug resistant cells to doxorubicin (FIG. 5)” value is “dose responsive sensitization”. In addition, the “dose response inhibition of P-glycoprotein in the presence of vinblastine (FIG. 6)” value in data set [2] (vinblastine 0-100 nM, compound 50-1000 nM) was “dose response data inhibition of P-glycoprotein”.

`COCC1C(CCN2CCN(c3ccc(C(C)=O)cc3)CC2)c2cc(OC)c(OC)cc2C1c1ccc(OC)c(OC)c1` (stereo not shown) [AV-203]: in data set [1], the “% Inhibition of R123 Transport” value stood at 77.9%. For the same compound, in data set [2], the “Modulation of Drug Resistance (percentage increase in doxorubicin cytotoxicity in the presence of the compounds versus in their absence)” value is 84.65%.

In turn, `CCOc1ccccc1N1CCN(C(=O)CC2c3cc(OC)c(OCc4ccccc4)cc3C(c3ccc(OCc4ccccc4)c(OC)c3)C2C(=O)N2CCN(c3ccccc3OCC)CC2)CC1` (stereo not shown) [AV-205, 2-{5-benzyloxy-3-(4-benzyloxy-3-methoxyphenyl)-2-{4-(2-ethoxyphenyl)-piperazine-1-carbonyl}-6-methoxy-indan-1-yl}-1-{4-(2-ethoxyphenyl)-piperazin-1-yl]-ethanone] registered an inhibition at 10 μM in data set [1] of 53.6%. Besides, the “Modulation of Drug Resistance (percentage increase in doxorubicin cytotoxicity in the presence of the compounds versus in their absence)” value in data set [2] was 35.56%.

`CCOc1ccccc1N1CCN(C(=O)CC2c3cc(OC)c(O)cc3C(c3ccc(O)c(OC)c3)C2C(=O)N2CCN(c3ccccc3OCC)CC2)CC1` (stereo not shown) [AV-206, 2-[2-[4-(2-ethoxyphenyl)-piperazine-1-carbonyl]-5-hydroxy-3-(4-hydroxy-3-methoxyphenyl)-6-methoxy-indan-1-yl]-1-[4(2-ethoxyphenyl)-piperazin-1-yl]-ethanone]: the inhibition at 10 μM in data set [1] was determined as 88.2%. Also, in data set [2], the “Modulation of Drug Resistance (percentage increase in doxorubicin cytotoxicity in the presence of the compounds versus in their absence)” value came to 54.78%.

The compound `CCOc1ccc(C2c3cc(OCC)c(OC)cc3C(CC(=O)N3CCN(c4ccccc4OCC)CC3)C2C(=O)N2CCN(c3ccccc3OCC)CC2)cc1OC` (stereo not shown) [AV-207, 2-{5-ethoxy-3-(4-ethoxy-3-methoxyphenyl)-2-[4-(2-ethoxyphenyl)-piperazine-1-carbonyl]-6-methoxy-indan-1-yl}-1-[4-(2-ethoxyphenyl)-piperazin-1-yl]-ethanone] returned an inhibition at 10 μM in data set [1] of 89.7%. Moreover, in data set [2], the “Modulation of Drug Resistance (percentage increase in doxorubicin cytotoxicity in the presence of the compounds versus in their absence)” value was 55.08%.

On to `CCCCOc1ccc(C2c3cc(OCCCC)c(OC)cc3C(CC(=O)N3CCN(c4ccccc4OCC)CC3)C2C(=O)N2CCN(c3ccccc3OCC)CC2)cc1OC` (stereo not shown) [AV-208, 2-{5-butoxy-3-(4-butoxy-3-methoxyphenyl)-2-[4-(2-ethoxyphenyl)-piperazine-1-carbonyl]-6-methoxy-indan-1-yl}-1-[4-(2-ethoxyphenyl)-piperazin-1-yl]-ethanone], for which, in data set [1], the inhibition at 10 μM came out at 86.1%. The “Modulation of Drug Resistance (percentage increase in doxorubicin cytotoxicity in the presence of the compounds versus in their absence)” value in data set [2] came out at 51.78%.

In the case of `CCCCCCCCCCOc1ccc(C2c3cc(OCCCCCCCCCC)c(OC)cc3C(CC(=O)N3CCN(c4ccccc4OCC)CC3)C2C(=O)N2CCN(c3ccccc3OCC)CC2)cc1OC` (stereo not shown) [AV-209, 2-{5-decyloxy-3-(4-decyloxy-3-methoxyphenyl)-2-[4-(2-ethoxyphenyl)-piperazine-1-carbonyl]-6-methoxy-indan-1-yl}-1-[4-(2-ethoxyphenyl)-piperazin-1-yl]-ethanone], the inhibition at 10 μM in data set [1] is 47.3%. Also, the “Modulation of Drug Resistance (percentage increase in doxorubicin cytotoxicity in the presence of the compounds versus in their absence)” value in data set [2] came out at 1.16%.

On to `COc1ccc(C2c3cc(OC)c(OC)cc3C(CCNS(=O)(=O)c3ccccc3)C2CNS(=O)(=O)c2ccccc2)cc1OC` (stereo not shown) [AV-223, N-{2-[(2-N-methyl)-benzenesulfonamide-3-(3,4-dimethoxyphenyl)-5,6-dimethoxy-indan-1-yl}-ethyl}-benzensulfonamide], for which, in data set [1], the “% Inhibition of R123 Transport” value was 74.50%. In data set [2], the “Modulation of Drug Resistance (percentage increase in doxorubicin cytotoxicity in the presence of the compounds versus in their absence)” value worked out at 36.55%.

Turning to `COc1ccc(C2c3cc(OC)c(OC)cc3C(CCNC(=O)NCc3ccccc3)C2CNC(=O)NCc2ccccc2)cc1OC` (stereo not shown) [AV-234, 10-benzyl-3-{2-[2-(3-benzyl-ureidomethyl)-3-(3,4-dimethoxyphenyl)-5,6-dimethoxy-indan-1-yl]-ethyl}-urea], the “% Inhibition of R123 Transport” value in data set [1] worked out at 37.58%. The “Modulation of Drug Resistance (percentage increase in doxorubicin cytotoxicity in the presence of the compounds versus in their absence)” value in data set [2] is 12.50%.

For the compound `CCOc1ccccc1N1CCN(C(=O)CC2c3cc(OC)c(OC)cc3C(c3ccc(OC)c(OC)c3)C2C(=O)O)CC1` (stereo not shown) [AV-250, 1-(3,4-Dimethoxy-phenyl)-3-{2-[4-(2-ethoxy-phenyl)-piperazin-1-yl]-2-oxo-ethyl}-5,6-dimethoxy-indan-2-carboxylic acid], the inhibition at 10 μM in data set [1] stood at 55.9%. In addition, in data set [2], the “Modulation of Drug Resistance (percentage increase in doxorubicin cytotoxicity in the presence of the compounds versus in their absence)” value is on record as −7.1%.

In data set [1], `CCCCCOc1ccc(C2c3cc(OCCCCC)c(OC)cc3C(CC(=O)N3CCN(c4ccccc4OCC)CC3)C2C(=O)N2CCN(c3ccccc3OCC)CC2)cc1OC` (stereo not shown) [AV-252, 2-[2-[4-(2-Ethoxy-phenyl)-piperazine-1-carbonyl]-6-methoxy-3-(3-methoxy-4-pentyloxy-phenyl)-5-pentyloxy-indan-1-yl]-1-[4-(2-ethoxy-phenyl)-piperazin-1-yl]ethanone] had an inhibition at 10 μM of 64.2%. Besides, the “Modulation of Drug Resistance (percentage increase in doxorubicin cytotoxicity in the presence of the compounds versus in their absence)” value in data set [2] was −0.5%.

`CCOc1ccc(C2c3cc(OCC)c(OCC)cc3C(CC(=O)N3CCN(c4ccccc4OCC)CC3)C2C(=O)N2CCN(c3ccccc3OCC)CC2)cc1OCC` (stereo not shown) [AV-253]: the “% Inhibition of R123 Transport” value in data set [1] was 92.03%. The “Modulation of Drug Resistance (percentage increase in doxorubicin cytotoxicity in the presence of the compounds versus in their absence)” value in data set [2] turned out to be 19.8%.

With `CCCOc1ccc(C2c3cc(OCCC)c(OCCC)cc3C(CC(=O)N3CCN(c4ccccc4OCC)CC3)C2C(=O)N2CCN(c3ccccc3OCC)CC2)cc1OCCC` (stereo not shown) [AV-254, 2-{3-(3,4-Dipopoxy-phenyl)-2-[4-(2-ethoxy-phenyl)-piperazine-1-carbonyl]-5,6-dipropoxy-indan-1-yl}-1-[4-(2-ethoxy-phenyl)-piperazin-1-yl]-ethanone], in data set [1], the “% Inhibition of R123 Transport” value is given as 18.70%. In data set [2], the “Modulation of Drug Resistance (percentage increase in doxorubicin cytotoxicity in the presence of the compounds versus in their absence)” value amounted to 4.1%.

Consider `CCCCOc1ccc(C2c3cc(OCCCC)c(OCCCC)cc3C(CC(=O)N3CCN(c4ccccc4OCC)CC3)C2C(=O)N2CCN(c3ccccc3OCC)CC2)cc1OCCCC` (stereo not shown) [AV-255, 2-{3-(3,4-Dibutoxy-phenyl)-2-[4-(2-ethoxy-phenyl)-piperazine-1-carbonyl]-5,6-dibutoxy-indan-1-yl}-1-[4-(2-ethoxy-phenyl)-piperazin-1-yl]-ethanone], for which the inhibition at 10 μM in data set [1] came out at 96%. Moreover, the “Modulation of Drug Resistance (percentage increase in doxorubicin cytotoxicity in the presence of the compounds versus in their absence)” value in data set [2] was 6.7%.

`CCOc1ccccc1N1CCN(C(=O)CC2c3cc(OC)c(OC)cc3C(c3ccc(OC)c(OC)c3)C2C(=O)N2CCN(C)CC2)CC1` (stereo not shown) [AV-256]: the “% Inhibition of R123 Transport” value in data set [1] turned out to be 75.61%. For the same compound, in data set [2], the “Modulation of Drug Resistance (percentage increase in doxorubicin cytotoxicity in the presence of the compounds versus in their absence)” value turned out to be 8.7%.

As to `CCOc1ccccc1N1CCN(C(=O)CC2c3cc(OC)c(OC)cc3C(c3ccc(OC)c(OC)c3)C2C(=O)N(C)C)CC1` (stereo not shown) [AV-257, 1-(3,4-Dimethoxy-phenyl)-3-{2-[4-(2-ethoxy-phenyl)-piperazin-1-yl]-2-oxo-ethyl}-5,6-dimethoxy-indan-2-carboxylic acid dimethylamide], the inhibition at 10 μM in data set [1] stood at 80.4%. In addition, the “Modulation of Drug Resistance (percentage increase in doxorubicin cytotoxicity in the presence of the compounds versus in their absence)” value in data set [2] is 8.7%.

In the case of `COc1ccc(C2c3cc(OC)c(OC)cc3C(CCNC(=O)c3ccc(C(C)(C)C)cc3)C2CNC(=O)c2ccc(C(C)(C)C)cc2)cc1OC` (stereo not shown) [AV-259], the “% Inhibition of R123 Transport” value in data set [1] worked out at 84.87%. In data set [2], the “Modulation of Drug Resistance (percentage increase in doxorubicin cytotoxicity in the presence of the compounds versus in their absence)” value is 3.9%.

As for `COc1ccc(C2c3cc(OC)c(OC)cc3C(CCNC(=O)c3ccc(OC(F)(F)F)cc3)C2CNC(=O)c2ccc(OC(F)(F)F)cc2)cc1OC` (stereo not shown) [AV-260], the “% Inhibition of R123 Transport” value in data set [1] amounted to 73.84%. Further, in data set [2], the “Modulation of Drug Resistance (percentage increase in doxorubicin cytotoxicity in the presence of the compounds versus in their absence)” value worked out at 2.1%.

For `CCCc1ccc(C(=O)NCCC2c3cc(OC)c(OC)cc3C(c3ccc(OC)c(OC)c3)C2CNC(=O)c2ccc(CCC)cc2)cc1` (stereo not shown) [AV-262], in data set [1], the “% Inhibition of R123 Transport” value is 83.47%. Moreover, in data set [2], the “Modulation of Drug Resistance (percentage increase in doxorubicin cytotoxicity in the presence of the compounds versus in their absence)” value amounted to 18.0%.

With `COc1ccc(C2c3cc(OC)c(OC)cc3C(CCNC(=O)c3ccc(Br)cc3)C2CNC(=O)c2ccc(Br)cc2)cc1OC` (stereo not shown) [AV-263], in data set [1], the “% Inhibition of R123 Transport” value is recorded as 80.78%. Further, the “Modulation of Drug Resistance (percentage increase in doxorubicin cytotoxicity in the presence of the compounds versus in their absence)” value in data set [2] was 12.2%.

As for `COc1ccc(C2c3cc(OC)c(OC)cc3C(CCNC(=O)c3ccccc3)C2CNC(=O)c2ccccc2)cc1OC` (stereo not shown) [AV-264], the “% Inhibition of R123 Transport” value in data set [1] came to 83.51%. Moreover, the “Modulation of Drug Resistance (percentage increase in doxorubicin cytotoxicity in the presence of the compounds versus in their absence)” value in data set [2] is given as 6.3%.

As for `COc1ccc(C2c3cc(OC)c(OC)cc3C(CCNC(=O)c3ccccc3OC)C2CNC(=O)c2ccccc2OC)cc1OC` (stereo not shown) [AV-265], the “% Inhibition of R123 Transport” value in data set [1] stood at 93.0%. Further, the “Modulation of Drug Resistance (percentage increase in doxorubicin cytotoxicity in the presence of the compounds versus in their absence)” value in data set [2] is recorded as −0.2%.
